Experimental data taken from patent publication US11345694B2, “Antibacterial compounds” (DISCUVA LTD., priority 2017, dated 2022).
Converted amounts (≈) assume the structure as drawn.

Key:
[1] = test system: K. pneumoniae NCTC 13438 (KP1); assay: MIC broth microdilution; type: cell-based, Klebsiella pneumoniae; details: Klebsiella pneumoniae, NCTC13438
Procedure: (§1) Minimum Inhibitory Concentrations (MICs) versus planktonic bacteria are determined by the broth microdilution procedure according to the guidelines of the Clinical and Laboratory Standards Institute (Clinical and Laboratory Standards Institute. Methods for Dilution Antimicrobial Susceptibility Tests for Bacteria That Grow Aerobically; Approved Standard-tenth Edition. CLSI document M07-A10, 2015). The broth dilution method involves a two-fold serial dilution of compounds in 96-well microtitre plates, giving a final concentration range of 0.39-200 μM and a maximum final concentration of 2% DMSO. The bacterial strains tested include Escherichia coli K12 (EC), E. coli NCTC 13441 (UPEC), Staphylococcus aureus ATCC 35556 (SA), Acinetobacter baumannii ATCC 17978 (AB), Pseudomonas aeruginosa ATCC 33359 (PA), Enterobacter cloacae DSM 30054 (Ed), Serratia marcescens SL1344 (Sm), Salmonella typhimurium XNAA5 (St), Klebsiella pneumoniae ATCC 10031 (KP2), K. pneumoniae NCTC 13438 (KP1), K. pneumoniae ATCC 700603 (KP3), Klebsiella pneumoniae ATCC 51504 (KP4), K. pneumoniae H154680676 (KP5), K. pneumoniae H154020667 (KP6), K. pneumoniae H154640784 (KP7), K. pneumoniae H154600588 (KP8), K. pneumoniae H154300688 (KP9), K. pneumoniae H151440671 (KP10). Strains are grown in cation-adjusted Müller-Hinton broth or on Luria Bertoni agar at 37° C. in an ambient atmosphere. The MIC is determined as the lowest concentration of compound that inhibits growth following a 20-24 hour incubation period.

[2] = test system: E. coli NCTC 13441 (UPEC); assay: MIC broth microdilution; type: cell-based, Escherichia coli; details: Escherichia coli, NCTC13441
Procedure: as §1

[3] = test system: human hepatocarcinoma cell line ATCC HB-8065 (HepG2); assay: Human cell viability (CellTiter-Glo); type: cell-based; details: Homo sapiens; HepG2 cells, 24 h incubation, CellTiter-Glo luminescence, 0.2-100 μM; read-out: IC50 values against the HepG2 cell line
Procedure: Compounds are assessed for potential non-specific cytotoxic effects against the human hepatocarcinoma cell line ATCC HB-8065 (HepG2). HepG2 cells are seeded at 20,000 cells/well in 96-well microtitre plates in minimal essential medium (MEM) supplemented with a final concentration of 10% FBS. After 24 h, compound dilutions are prepared in MEM supplemented with a final concentration of 1% FBS, and added to the cells. Compounds are tested in two-fold serial dilutions over a final concentration range of 0.2-100 μM in a final DMSO concentration of 1% vol/vol. Thioridazine is used as a positive control. Cells are incubated with compound at 37° C. and 5% CO2 for a further 24 h, after which time the CellTiter-Glo reagent (Promega) is added. Luminescence is measured on a Perkin Elmer Envision plate reader. Data are analysed using a 4 parameter logistic regression to determine the concentration of compound that inhibits cell viability by fifty percent (IC50).

[4] = test system: Klebsiella pneumoniae ATCC 10031 (KP2); assay: MIC broth microdilution; type: cell-based; details: ATCC10031
Procedure: as §1

[5] = test system: Acinetobacter baumannii ATCC 17978 (AB); assay: MIC broth microdilution; type: cell-based; details: ATCC17978
Procedure: as §1

[6] = test system: Staphylococcus aureus ATCC 35556 (SA); assay: MIC broth microdilution; type: cell-based; details: ATCC35556
Procedure: as §1

[7] = test system: Pseudomonas aeruginosa ATCC 33359 (PA); assay: MIC broth microdilution; type: cell-based; details: ATCC33359
Procedure: as §1

[8] = test system: Escherichia coli K12 (EC); assay: MIC broth microdilution; type: cell-based
Procedure: as §1

| MIC [1] | MIC [2] | IC50 [3] | MIC [4] | MIC [5] | MIC [6] | MIC [7] | MIC [8] | SMILES |
| --- | --- | --- | --- | --- | --- | --- | --- | --- |
| 10 to 100 µM (≈ 2.93 to 29.3 µg/mL) | ≤ 1 µM | > 100 µM | ≤ 1 µM | > 100 µM | > 100 µM | > 100 µM | ≤ 1 µM | Nc1cc(-c2[nH]c(N)nc2-c2ccc3c(c2)CCO3)ccn1 [Example 8, 4-(2-Amino-4-(2,3-dihydrobenzofuran-5-yl)-1H-imidazol-5-yl)pyridin-2-amine] |
| 10 to 100 µM (≈ 3.61 to 36.1 µg/mL) | 1 to 10 µM (≈ 0.361 to 3.61 µg/mL) | > 100 µM | ≤ 1 µM | > 100 µM | > 100 µM | > 100 µM | 1 to 10 µM (≈ 0.361 to 3.61 µg/mL) | Nc1nc(-c2ccc3c(c2)NCCO3)c(-c2ccnc(C(F)(F)F)c2)[nH]1 [Example 46, 4-(3,4-Dihydro-2H-benzo[b][1,4]oxazin-6-yl)-5-(2-(trifluoromethyl)pyridin-4-yl)-1H-imidazol-2-amine] |
| > 100 µM | > 100 µM | > 100 µM | 1 to 10 µM (≈ 0.325 to 3.25 µg/mL) | > 100 µM | > 100 µM | > 100 µM | > 100 µM | Cc1cc(-c2sc(N)nc2-c2ccc3c(c2)OCCO3)ccn1 [Example 80, 4-(2,3-Dihydrobenzo[b][1,4]dioxin-6-yl)-5-(2-methylpyridin-4-yl)thiazol-2-amine] |
| 10 to 100 µM (≈ 3.02 to 30.2 µg/mL) | 1 to 10 µM (≈ 0.302 to 3.02 µg/mL) | > 100 µM | ≤ 1 µM | > 100 µM | > 100 µM | > 100 µM | 1 to 10 µM (≈ 0.302 to 3.02 µg/mL) | Cc1cc(-c2[nH]c(N)nc2-c2ccc3nccnc3c2)ccn1 [Example 31, 5-(2-Methylpyridin-4-yl)-4-(quinoxalin-6-yl)-1H-imidazol-2-amine] |
| 10 to 100 µM (≈ 3.39 to 33.9 µg/mL) | 1 to 10 µM (≈ 0.339 to 3.39 µg/mL) | > 100 µM | ≤ 1 µM | > 100 µM | > 100 µM | > 100 µM | 1 to 10 µM (≈ 0.339 to 3.39 µg/mL) | Cc1cc(-c2[nH]c(N)nc2-c2cc(F)c3c(c2)NC(=O)CO3)ccn1 [Example 50, 6-(2-Amino-5-(2-methylpyridin-4-yl)-1H-imidazol-4-yl)-8-fluoro-2H-benzo[b][1,4]oxazin-3(4H)-one] |
| 10 to 100 µM (≈ 3.05 to 30.5 µg/mL) | 1 to 10 µM (≈ 0.305 to 3.05 µg/mL) | > 100 µM | ≤ 1 µM | > 100 µM | > 100 µM | > 100 µM | 1 to 10 µM (≈ 0.305 to 3.05 µg/mL) | Cc1cc(-c2[nH]c(N)nc2-c2ccc3oc(C)nc3c2)ccn1 [Example 37, 4-(2-Methylbenzo[d]oxazol-5-yl)-5-(2-methylpyridin-4-yl)-1H-imidazol-2-amine] |
| 10 to 100 µM (≈ 2.84 to 28.4 µg/mL) | 1 to 10 µM (≈ 0.284 to 2.84 µg/mL) | > 100 µM | ≤ 1 µM | > 100 µM | > 100 µM | > 100 µM | 10 to 100 µM (≈ 2.84 to 28.4 µg/mL) | Cc1cc(-c2nc(N)[nH]c2-c2ccc(O)c(F)c2)ccn1 [Example 15, 4-(2-Amino-4-(2-methylpyridin-4-yl)-1H-imidazol-5-yl)-2-fluorophenol] |
| 10 to 100 µM (≈ 3.21 to 32.1 µg/mL) | 1 to 10 µM (≈ 0.321 to 3.21 µg/mL) | > 100 µM | ≤ 1 µM | > 100 µM | > 100 µM | > 100 µM | 1 to 10 µM (≈ 0.321 to 3.21 µg/mL) | Cc1cc(-c2[nH]c(CN)nc2-c2ccc3c(c2)NCCO3)ccn1 [Compound 88] |
| 10 to 100 µM (≈ 2.81 to 28.1 µg/mL) | 1 to 10 µM (≈ 0.281 to 2.81 µg/mL) | > 100 µM | ≤ 1 µM | > 100 µM | > 100 µM | > 100 µM | 1 to 10 µM (≈ 0.281 to 2.81 µg/mL) | COc1ccc(-c2nc(N)[nH]c2-c2ccnc(C)c2)cn1 [Example 2, 4-(6-Methoxypyridin-3-yl)-5-(2-methylpyridin-4-yl)-1H-imidazol-2-amine] |
| > 100 µM | 10 to 100 µM (≈ 3.49 to 34.9 µg/mL) | > 100 µM | 1 to 10 µM (≈ 0.349 to 3.49 µg/mL) | > 100 µM | > 100 µM | > 100 µM | 10 to 100 µM (≈ 3.49 to 34.9 µg/mL) | CC(=O)N1CCOc2ccc(-c3nc(N)[nH]c3-c3ccnc(C)c3)cc21 [Example 63, 1-(6-(2-Amino-5-(2-methylpyridin-4-yl)-1H-imidazol-4-yl)-2,3-dihydro-4H-benzo[b][1,4]oxazin-4-yl)ethan-1-one] |
| 10 to 100 µM (≈ 3.26 to 32.6 µg/mL) | ≤ 1 µM | > 100 µM | ≤ 1 µM | > 100 µM | > 100 µM | > 100 µM | ≤ 1 µM | Cc1cc(-c2[nH]c(N)nc2-c2cc3c(cc2F)OCCO3)ccn1 [Example 59, 4-(7-Fluoro-2,3-dihydrobenzo[b][1,4]dioxin-6-yl)-5-(2-methylpyridin-4-yl)-1H-imidazol-2-amine] |
| 1 to 10 µM (≈ 0.321 to 3.21 µg/mL) | ≤ 1 µM | > 100 µM | ≤ 1 µM | > 100 µM | > 100 µM | > 100 µM | 1 to 10 µM (≈ 0.321 to 3.21 µg/mL) | Cc1cc(-c2[nH]c(N)nc2-c2ccc3c(c2)NCCO3)cc(C)n1 [Example 36, 4-(3,4-Dihydro-2H-benzo[b][1,4]oxazin-6-yl)-5-(2,6-dimethylpyridin-4-yl)-1H-imidazol-2-amine] |
| 10 to 100 µM (≈ 3.21 to 32.1 µg/mL) | 1 to 10 µM (≈ 0.321 to 3.21 µg/mL) | > 100 µM | ≤ 1 µM | > 100 µM | > 100 µM | > 100 µM | 1 to 10 µM (≈ 0.321 to 3.21 µg/mL) | Cc1cc(-c2[nH]c(N)nc2-c2ccc3c(c2)NCC(=O)O3)ccn1 [Example 53, 6-(2-Amino-5-(2-methylpyridin-4-yl)-1H-imidazol-4-yl)-3,4-dihydro-2H-benzo[b][1,4]oxazin-2-one] |
| 10 to 100 µM (≈ 3.64 to 36.4 µg/mL) | 1 to 10 µM (≈ 0.364 to 3.64 µg/mL) | > 100 µM | ≤ 1 µM | > 100 µM | > 100 µM | > 100 µM | 1 to 10 µM (≈ 0.364 to 3.64 µg/mL) | Cc1cc(-c2nc(N)[nH]c2-c2ccc3c(c2)N(CCN)C(=O)CO3)ccn1 [Example 89, 6-(2-Amino-4-(2-methylpyridin-4-yl)-1H-imidazol-5-yl)-4-(2-aminoethyl)-2H-benzo[b][1,4]oxazin-3(4H)-one] |
| > 100 µM | > 100 µM | > 100 µM | 1 to 10 µM (≈ 0.35 to 3.5 µg/mL) | > 100 µM | > 100 µM | > 100 µM | > 100 µM | CNC(=O)c1nc(-c2ccnc(C)c2)c(-c2ccc3c(c2)OCCO3)[nH]1 [Example 85, 5-(2,3-Dihydrobenzo[b][1,4]dioxin-6-yl)-N-methyl-4-(2-methylpyridin-4-yl)-1H-imidazole-2-carboxamide] |
| 1 to 10 µM (≈ 0.306 to 3.06 µg/mL) | ≤ 1 µM | > 100 µM | ≤ 1 µM | > 100 µM | > 100 µM | > 100 µM | ≤ 1 µM | Cc1cc(-c2[nH]c(N)nc2-c2ccc3c(c2)CC(C)O3)ccn1 (racemic) [Example 41, 4-(2-Methyl-2,3-dihydrobenzofuran-5-yl)-5-(2-methylpyridin-4-yl)-1H-imidazol-2-amine] |
| 10 to 100 µM (≈ 3.35 to 33.5 µg/mL) | 1 to 10 µM (≈ 0.335 to 3.35 µg/mL) | > 100 µM | ≤ 1 µM | > 100 µM | > 100 µM | > 100 µM | 1 to 10 µM (≈ 0.335 to 3.35 µg/mL) | Cc1cc(-c2[nH]c(N)nc2-c2ccc3c(c2)NC(=O)C(C)O3)ccn1 (stereo not drawn) [Example 33, 6-(2-Amino-5-(2-methylpyridin-4-yl)-1H-imidazol-4-yl)-2-methyl-2H-benzo[b][1,4]oxazin-3(4H)-one] |
| 1 to 10 µM (≈ 0.393 to 3.93 µg/mL) | 1 to 10 µM (≈ 0.393 to 3.93 µg/mL) | > 100 µM | ≤ 1 µM | > 100 µM | > 100 µM | > 100 µM | 1 to 10 µM (≈ 0.393 to 3.93 µg/mL) | COC(=O)CCN1CCOc2ccc(-c3nc(N)[nH]c3-c3ccnc(C)c3)cc21 [Example 61, Methyl 3-(6-(2-amino-5-(2-methylpyridin-4-yl)-1H-imidazol-4-yl)-2,3-dihydro-4H-benzo[b][1,4]oxazin-4-yl)propanoate] |
